From paper PMC3784060 (Cancer Chemotherapy and Pharmacology, 2013)
Values joined by “and” are separate entries in the source; they are usually repeats but may differ in a detail not shown here. Equal entries are not always repeated.

Experiments:
[1] = system: relapsed/refractory AML and ALL; experiment: phase II study in acute leukemia: response, blast/WBC reduction, time to progression; assay type: in vivo, human; conditions: for median WBC count: pretreatment 2,650
Protocol: Each cycle lasted 21 days. Patient could continue treatment on the study in the absence of disease progression or unacceptable toxicity. The next cycle of therapy could start if non-hematologic toxicity from previous cycle recovered to ≤grade 1, and dose delay of up to 3 weeks was allowed for recovery. Permanent dose reduction was required for any ≥grade 3 clinically significant non-hematologic adverse event (70 mg/m^2 → 50 mg/m^2; 50 mg/m^2 → 40 mg/m^2; 40 mg/m^2 → 30 mg/m^2; 30 mg/m^2 → discontinue). To allow for continued treatment of subjects whose cytopenias were due to leukemia and not due to drug toxicity, subsequent cycles of treatment were allowed if absolute neutrophil count (ANC) ≥0.5 × 10^9/L or for ANC <0.5 × 10^9/L but no more than 20 % below the baseline pretreatment levels and platelet count ≥20 × 10^9/L or platelets <20 × 10^9/L but no more than 20 % below the baseline pretreatment levels. Anti-emetic prophylaxis including serotonin-receptor antagonist, metoclopramide, or prochloperazine with or without dexamethasone was allowed. […] Dexamethasone 20 mg IV was given early if symptoms of cytokine release syndrome were observed.
Response was assessed by bone marrow (BM) examination on day 21 of cycles 1 and 2, and every 6 weeks thereafter until complete remission or progressive disease (PD). Response was determined according to the revised recommendations of the International Working Group (IWG) for AML [33]. Toxicities were graded according to the National Cancer Institute Common Terminology Criteria for Adverse Events (NCI CTCAE), version 3.0 (http://ctep.cancer.gov/protocolDevelopment/electronic_applications/docs/ctcaev3.pdf). Hematologic and chemistry profiles were monitored on day 1 and 2 of each cycle or until resolution of acute toxicities and subsequently at least once a week or more frequently depending on the individual patient’s needs.
The primary efficacy endpoint of the study was the ORR, including complete remission (CR), CR with incomplete count recovery (CRi), and partial remission.

[2] = system: PARP, Mcl-1, p-Rb in primary leukemia samples; experiment: Western blot, primary leukemia cells in vitro; assay type: cell-based, human; conditions: 6-h exposure, ≥20 nM; more prominent at 200 nM and 24 h
Protocol: Primary leukemia cells for in vitro studies were isolated from BM or PB obtained from AML or ALL patients enrolled on a separate University of Maryland, Baltimore, IRB-approved protocol for tissue collection and not treated on this clinical study. The cells were isolated by gradient centrifugation using LSM (Mediatech) according to the manufacturer’s protocol. Cells were used either fresh or after viable freezing (FBS/10 % DMSO). Primary leukemia cells were cultured in RPMI 1640 (Invitrogen, Grand Island, NY, USA) supplemented with 15 % heat-inactivated FBS (HyClone Laboratories Inc., Red Bank, NJ, USA) and 200 mM L-Glutamine (Invitrogen). […]
For Western blot analysis, leukemia cell pellets (primary leukemia cells, HL-60, MOLT-4, K562) were washed with PBS and lysed with RIPA buffer (Sigma-Aldrich, St. Louis, MO, USA) supplemented with Complete Mini™ protease inhibitor and PHOStop™ phosphatase inhibitors (Roche). […] Blots were washed three times, and the signal was detected with Amersham™ ECL™ detection systems (GE Healthcare, Pittsburgh, PA, USA). […] The Western blot signals were measured by densitometry using ImageJ 1.45I software (NIH, Bethesda, USA).

[3] = 13 patients with circulating blasts, within 1–8 days of first dose
[4] = AML patients, all treated subjects
[5] = patients with circulating blasts

CCc1cnn2c(NCc3ccc[n+]([O-])c3)cc(N3CCCC[C@H]3CCO)nc12 [Dinaciclib]
objective responses by IWG criteria ([1]; 50 mg/m^2 2-h infusion every 21 days, 20 patients): No objective responses
average reduction in BM blasts ([1]; 8 of 13 patients with follow-up BM evaluations): 36%
patients with >50 % decrease in absolute blast count (ABC) [1, 3]: 77%
patients with >80 % decrease in absolute blast count (ABC) [1, 3]: 46%
TTP ([1]; ALL patients): 1 to 8.14 weeks
median TTP ([1]; AML patients included in the initial randomization): 5.14 weeks
Beta Posterior Mean (Bayes estimate of the response rate) [1, 4]: 0.071
Difference in observed response rate (SCH727965 - Mylotarg) [1, 4]: -12.500%
Number of Non-responders [1, 4]: 12
Number of Responders [1, 4]: 0
Posterior Probability (This treatment is better) [1, 4]: 0.200
Observed Response Rate (%) ([1]; AML patients, all treated subjects, frequentist approach): 0.000%
Median time to progression, Estimate ([1]; all treated AML patients): 5.14 weeks
Number of Events (progression) ([1]; all treated AML patients): 10
median WBC count ([1]; day 2): 1,045 × 10^6/L
median WBC count ([1]; day 8): 1,350 × 10^6/L
median duration of the WBC nadir ([1]; in vivo): 5 days
patients with temporary decrease in PB and/or marrow blasts ([1]; in vivo): 60%
duration of ABC nadir [1, 5]: 7 days
median time to ABC nadir [1, 5]: 3 days
median ABC nadir ([1]; patients with circulating blasts, pre-treatment 1,130): 2e+08 L⁻¹
TTP ([1]; two AML patients who crossed over from GO, individual values): 7.86 weeks and 9.14 weeks
Mcl-1 expression and PARP cleavage [2]: down-regulation of Mcl-1 and induction of PARP cleavage were observed in all 5 primary leukemia samples
